A short description of series [1]: Ethanol extraction rate (ISO 175-2011). In kind it is physicochemical. Particulars: PVC composite with 30 parts plasticizer, room temperature, 72 h. The protocol:
(§1) The above plasticizer is the mixed aconitates prepared in Example 37, and composite materials are prepared according to the above weight ratio and preparation method respectively. At the same time, dioctyl phthalate, tributyl citrate, tributyl aconitate and triisooctyl aconitate are respectively selected as plasticizers to prepare composite materials according to the above weight ratio and preparation method. The test method is the same as that in Test 2 except for the following: • 1. Volatility loss rate: tests were performed in accordance with HG/T 4458-2012 Plastics - Determination of Plasticizer Loss by Activated Carbon Method at a test temperature of 70°C for 24 h. • 2. Water extraction rate: tests were performed in accordance with the standard ISO 175-2011 Test Method for Determination of Immersion Effects of Plastics in Liquid Chemicals at room temperature for 72 h, with deionized water as the extraction solvent. • 3. Ethanol extraction rate: tests were performed in accordance with the standard ISO 175-2011 Test Method for Determination of Immersion Effects of Plastics in Liquid Chemicals at room temperature for 72 h, with ethanol as the extraction solvent. • 4. Petroleum ether extraction rate: tests were performed in accordance with the standard ISO 175-2011 Test Method for Determination of Immersion Effects of Plastics in Liquid Chemicals at room temperature for 72 h, with petroleum ether as the extraction solvent. • 5. Migration rate: tests were performed in accordance with HG/T 4458-2012 Determination of Plasticizer Migration in Plastics at a test temperature of 50°C for 48 h. The materials of absorbent sheets are polyethylene (PE) without additives and standard natural rubber (NR).

Series [2] in a line: Petroleum ether extraction rate (ISO 175-2011). The format is physicochemical. The following applies: PVC composite with 30 parts plasticizer, room temperature, 72 h. As for the experimental part:
as §1

A short description of series [3]: Plasticizer migration rate to PE (HG/T 4458-2012). In kind it is physicochemical. Particulars: PVC composite with 30 parts plasticizer; 50°C for 48 h. As for the experimental part: as §1
Series [4] in a line: Tensile properties (GB/T 1040-2006): tensile modulus at 100%, elongation at break, elastic modulus. The format is physicochemical. Particulars: PVC composite with 30 parts plasticizer, Table 9.
Series [5] is described as follows: Water extraction rate (ISO 175-2011). Particulars: PVC composite with 30 parts plasticizer; room temperature, 72 h, deionized water. The format is physicochemical. As for the experimental part: as §1
Series [6] in a line: Compatibility (water value method). The format is physicochemical. The following applies: water value of the plasticizer, Table 9.
Series [7] can be described thus: Hardness (Shore hardness tester, GB/T 531-2008). In kind it is physicochemical. Particulars: composite: 100 parts PVC resin (K value 60, polydispersity index 4), 30 parts plasticizer, 2 parts oxidized polyethylene wax, 5 parts octyltin maleate.
A short description of series [8]: Volatility loss rate (activated carbon method, HG/T 4458-2012). The format is physicochemical. The following applies: PVC composite with 30 parts plasticizer; 70°C for 24 h. The protocol: as §1
Series [9] in a line: Plasticizer migration rate to NR (HG/T 4458-2012). In kind it is physicochemical. Particulars: PVC composite with 30 parts plasticizer; 50°C for 48 h. The protocol: as §1
Series [10] is described as follows: Glass transition temperature (dynamic mechanical analyzer). The following applies: PVC composite with 30 parts plasticizer, Table 10. In kind it is physicochemical.
Series [11] relates to Aspergillus terreus engineered strains. The format is cell-based. The following applies: for effect on the yield of trans-Aconitic acid: additionally added at certain doses, shake flask; for increase of the yield of trans-Aconitic acid: 96 hours of shake flask fermentation. The protocol:
Additional supplementation experiments were performed on differential amino acids and vitamins between high-yield and low-yield corn steep liquor powders. Based on the high-yield corn steep liquor powder medium, fermentation verification was performed by adding differential amino acid components and vitamin components separately. Each group was set up with three parallel replicates. After 96 hours of shake flask fermentation, the supernatant of the fermentation broth was collected for quantitative analysis using HPLC detection.

For series [12], the system named is Aspergillus niger engineered strains. Particulars: 30 L fermenter, after 132 h of fermentation. As for the experimental part: Fermentation was performed in a 30 L fermenter using the medium added with L-methionine. The control parameters were as follows: 300 to 480 rpm, DO level maintained at 25 to 29%, and aeration rate controlled at 20 L/min.
Series [13] has as its system Aspergillus terreus engineered strains. The format is cell-based. The following applies: 30 L fermenter. The protocol:
Meanwhile, the medium without added amino acids was used as a control to compare the fermentation yields. […] The primary and secondary seed media were: 150 g/L glucose monohydrate, 4 g/L ammonium sulfate, 2 g/L corn steep liquor powder, 0.4 g/L magnesium sulfate heptahydrate, 0.06 g/L ferrous sulfate heptahydrate, 0.01 g/L diammonium hydrogen phosphate, 40 mg/L zinc sulfate, 40 mg/L copper sulfate, and 0.5 g/L sodium chloride; no L-Trp or L-Met was added to the primary and secondary media. The tertiary fermentation medium was the same as the secondary seed medium, but L-Trp or L-Met was added. The control parameters of the 30 L fermenter were as follows: 300 to 480 rpm, dissolved oxygen (DO) level maintained at 25% to 29%, aeration rate at 20 L/min; DO control was linked during agitation. The control parameters of the 100 L fermenter were as follows: 250 to 280 rpm, DO controlled from 25 to 30% during agitation linkage, and aeration rate controlled f […].

The subject of series [14] is Aspergillus niger engineered strains. Particulars: shake flask, addition amount 0.12 g/L. The protocol: Nutritional factor optimization experiments were performed on the trans-Aconitic acid-producing Aspergillus niger engineered strains constructed in Example 1. Amino acid components were added for fermentation verification using the high-yield corn steep liquor powder medium as the basis.

Counter-ions that a name gives are not always drawn. Like-named read-outs stand apart in the source and are kept apart here.

For the compound `CCCCCCCCOC(=O)c1ccccc1C(=O)OCCCCCCCC` [Dioctyl Phthalate, dioctyl phthalate], in series [1], the Ethanol extraction rate is 5.13%. Besides, the “Petroleum ether extraction rate” value in series [2] was found to be 6.12%. Besides, the “Migration rate to PE” value in [3] is on record as 0.83%. In [4], the Elastic modulus stood at 487.3 MPa, the Elongation at break is 134.9% and the “Tensile modulus at 100%” value came out at 15.1 MPa. This compound also showed a Water extraction rate in [5] of 0.32%. For the same compound, in series [6], the Compatibility was 7.1 mL. Further, the “Hardness/Shore D” value in series [7] was 78 Shore D. Also, the Volatility loss rate in series [8] was determined as 0.96%. Further, the “Migration rate to NR” value in [9] was 0.81%. In series [10], this compound had a Tg of 48.5 °C.

Consider `NCCCC[C@H](N)C(=O)O` [L-lysine], for which the “effect on the yield of trans-Aconitic acid” value (from here on “effect on the yield”) in series [11] was “varying degrees of decrease”.

Compound `CSCC[C@H](N)C(=O)O` [L-methionine] had a TAA yield in series [12] of 60 g/L. The “final fermentation yield of trans-Aconitic acid” value in series [13] (0.115 g/L added (26 g/L without adding amino acid)) turned out to be 65 g/L. The “increase of the yield of trans-Aconitic acid” value (from here on “increase”) in series [11] (addition of 0.115 g/L) came to 86.5%. For the same compound, the “yield of the recombinant engineered strains” value in series [14] was found to be 31.76 g/L.

`O=C(O)[C@@H]1CCCN1` [L-proline]: the “effect on the yield” value in [11] is reported as “varying degrees of decrease”.

For the compound `N[C@@H](Cc1c[nH]c2ccccc12)C(=O)O` [L-tryptophan], the “yield of trans-Aconitic acid” value in series [13] (0.099 g/L added, at 60 h (26 g/L without adding amino acid)) is recorded as 41.95 g/L. The “increase” value in [11] (addition of 0.099 g/L) was determined as 46.2%; in series [11] (addition of 0.2 g/L), 20.7%.

`CCCCOC(=O)C=C(CC(=O)OCCCC)C(=O)OCCCC` [Tributyl aconitate, tributyl aconitate] yielded an Ethanol extraction rate in series [1] of 3.71%. Besides, the “Petroleum ether extraction rate” value in series [2] came to 6.03%. Further, the “Migration rate to PE” value in series [3] was 1.26%. Also, in series [4], the Elastic modulus was 130.5 MPa, the Elongation at break is 257.4% and the “Tensile modulus at 100%” value was 8.2 MPa. This compound also gave a Water extraction rate in series [5] of 0.36%. This compound also gave a Compatibility in [6] of 16.7 mL. In series [7], the “Hardness/Shore D” value was found to be 45 Shore D. Also, the Volatility loss rate in series [8] is listed as 1.08%. In series [9], the “Migration rate to NR” value came to 1.31%. The Tg in series [10] stood at 28.1 °C.

In the case of `CCCCOC(=O)CC(O)(CC(=O)OCCCC)C(=O)OCCCC` [Tributyl citrate, tributyl citrate], the Ethanol extraction rate in series [1] is reported as 4.96%. In series [2], the “Petroleum ether extraction rate” value worked out at 8.91%. The “Migration rate to PE” value in series [3] stood at 2.12%. In series [4], the Elastic modulus stood at 426.5 MPa, the Elongation at break is on record as 146.3% and the “Tensile modulus at 100%” value is reported as 13.6 MPa. The Water extraction rate in series [5] was found to be 1.16%. In series [6], this compound displayed a Compatibility of 14.3 mL. In addition, the “Hardness/Shore D” value in series [7] is recorded as 77 Shore D. In [8], this compound came in with a Volatility loss rate of 3.87%. In addition, the “Migration rate to NR” value in series [9] was 2.71%. In [10], this compound showed a Tg of 38.3 °C.

Compound `CC(C)CCCCCOC(=O)C=C(CC(=O)OCCCCCC(C)C)C(=O)OCCCCCC(C)C` [Triisooctyl aconitate, triisooctyl aconitate] came in with an Ethanol extraction rate in series [1] of 14.52%. For the same compound, in series [2], the “Petroleum ether extraction rate” value is listed as 16.44%. Further, the “Migration rate to PE” value in series [3] is listed as 0.13%. Besides, in [4], the Elastic modulus stood at 397.1 MPa, the Elongation at break is given as 156.3% and the “Tensile modulus at 100%” value came to 16.1 MPa. In series [5], this compound registered a Water extraction rate of 0.14%. In addition, the Compatibility in series [6] was determined as 10.9 mL. For the same compound, in series [7], the “Hardness/Shore D” value came out at 71 Shore D. In [8], this compound yielded a Volatility loss rate of 0.38%. Also, the “Migration rate to NR” value in series [9] stood at 0.18%. The compound also returned a Tg in series [10] of 43.5 °C.

With `O=C(O)CCCC[C@@H]1SC[C@@H]2NC(=O)N[C@@H]21` [biotin-vitamin B7, biotin], the “increase” value in [11] (addition of 0.11 g/L) turned out to be 17.5%.

Regarding `CC(O)C(=O)O` (centres unmarked) [lactic acid], in series [11], the “effect on the yield” value is listed as “varying degrees of decrease”.
